How the values were obtained:
[1] = Solubility in the in vitro aggregation assay conditions
Description: (§3) * The results are the mean of at least two independent measurements each performed in duplicate.
1 Compounds were measured at 50 μM.

physchem = conditions: phosphate buffer (Tau(306-336) aggregation assay conditions), pH 7.4, aqueous buffer
Description: as §3
1 Compounds were measured at 50 μM.

PAMPA-BBB assay = assay: PAMPA-BBB assay
Text: Thus, to reduce attrition in the development process, the evaluation of BBB penetration at a very early drug discovery stage is of crucial importance. In light of this, the ability of the previously selected compounds to cross the BBB was predicted by a parallel artificial membrane permeability assay (PAMPA)-BBB,[41] a high-throughput technique widely used as an indicator of a molecule’s passive diffusion through the BBB. Six commercially available drugs were used to validate the assay.
PAMPA (the parallel artificial membrane permeability assay) is a high-throughput screening tool applicable for the prediction of the passive transport of potential drugs across the BBB.[41] In this study, it has been used as a non-cell-based in vitro assay carried out in a coated 96-well membrane filter. The filter membrane of the donor plate was coated with PBL (Polar Brain Lipid, Avanti) in dodecane (4 μL of 20 mg/mL PBL in dodecane) and the acceptor well was filled with 300 μL of phosphate buffer saline, (PBS pH 7.4; VA). The tested compounds were dissolved first in DMSO and then diluted with PBS pH 7.4 to reach the final concentrations of 50–500 μM in the donor well. […] Then, 300 μL of the donor solution (VD) was added to the donor wells and the donor filter plate was carefully put on the acceptor plate so that the coated membrane was “in touch” with both donor solution and acceptor buffer. In principle, the test compound diffuses from the donor well through the polar brain lipid membrane (area = 0.28 cm^2) to the acceptor well. The concentrations of the tested compound in both donor and the acceptor wells were assessed after 3, 4, 5, and 6 h of incubation in quadruplicate using a UV plate reader, Synergy HT (Biotek) at the maximum absorption wavelength of each compound (n=3). In addition to that, solution of the theoretical compound concentration, simulating the equilibrium state established if the membrane were ideally permeable, was prepared and assessed as well. The concentrations of the compounds in the donor and acceptor wells and the equilibrium concentration were calculated from the standard curve and expressed as the permeability (Pe) according to the equation[41] [drawing 1] where [drawing 2]

[2] = tested on: Arctic Aβ42 Drosophila flies; assay: Climbing assay in Arctic Aβ42 Drosophila flies
Description: Thus, we performed behavioral tests to assess the climbing abilities of Aβ42Drosophila flies with and without treatment with 22 (20 μM), 23 (20 μM), and doxycycline (50 μM), compared to control flies.
(§4) The transactivating protein GAL4 is placed under the control of a specific promoter, with its own spatial and temporal patterns, in this case, Elav, whereas the upstream activation sequence (UAS) localized upstream, the locus controlled by the UAS-Gal4; in our study, UAS expresses construct for the E22G variant of Aβ42 (Arctic Aβ42) (AlzArc2).[56],[64] Around 150 flies (half female/male) for each compound tested were collected and divided into groups of 25 flies. At the top of the media, 25 μL of doxycycline (50 μM), 22 (20 μM), or 23 (20 μM) were added fresh anytime the flies were flipped.
Briefly, males and females 25 per vial were kept at 25 °C. The climbing test was performed on days 7, 14, and 21 after birth. […] The protocol was repeated 10 times at 5-min intervals.

Tau protein = target: T1, Tau protein (Homo sapiens, UniProt P10636); assay: Inhibition of Tau aggregation in intact E. coli cells overexpressing Tau (ThS fluorescence); assay type: cell-based, Escherichia coli; conditions: read-out: % inhibition Tau aggregation @ 10 μM, intact E. coli cells, compound 10 μM, mean ± SEM of four independent experiments
T1 construct: expressed in transfected cells; host or cells: Escherichia coli BL21 (DE3) with pTARA and pRKT42
T1 sequence (P10636 1-441 isoform P10636-8): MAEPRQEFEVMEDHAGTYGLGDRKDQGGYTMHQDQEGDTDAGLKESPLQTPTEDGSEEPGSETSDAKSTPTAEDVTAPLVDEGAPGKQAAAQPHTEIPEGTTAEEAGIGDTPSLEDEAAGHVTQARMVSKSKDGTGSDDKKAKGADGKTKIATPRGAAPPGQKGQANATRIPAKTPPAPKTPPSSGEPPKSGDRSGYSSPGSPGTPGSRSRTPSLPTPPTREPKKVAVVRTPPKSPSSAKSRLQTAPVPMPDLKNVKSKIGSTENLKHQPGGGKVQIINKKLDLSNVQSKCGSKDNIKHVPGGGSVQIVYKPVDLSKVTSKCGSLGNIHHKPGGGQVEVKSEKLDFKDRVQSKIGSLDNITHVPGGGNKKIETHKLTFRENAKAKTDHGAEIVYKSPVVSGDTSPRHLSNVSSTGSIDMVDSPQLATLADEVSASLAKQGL
Text: (§1) As it would have been labor-intensive and expensive to screen such a number of compounds in two separate antiaggregating studies using recombinant Aβ and Tau, we turned our attention to a simple model of protein aggregation, namely, the intact Escherichia coli (E. coli) cells overexpressing Aβ42 and Tau proteins.[28],[29] Building on the fact that inclusion bodies produced by overexpression of these proteins in E. coli mainly consist of fibrillar aggregates, this simple screening method uses bacteria as an in vivo reservoir for tracking the inhibition of amyloid-type protein aggregation in real time, using the amyloid dye thioflavin S (ThS). Of note, this screening has already been used for the evaluation of libraries of antiaggregating compounds.[28]−[38]
E. coli BL21 (DE3) competent cells were transformed with pTARA containing the RNA-polymerase gen of the T7 phage (T7RP) under the control of the promoter PBAD. E. coli BL21 (DE3) with pTARA competent cells were transformed with the pRKT42 vector encoding four repeats of Tau protein in two inserts. For overnight culture preparation, 10 mL of M9 medium containing 0.5% of glucose, 100 μg·mL^–1 ampicillin, and 12.5 μg·mL^–1 chloramphenicol were inoculated with a colony of BL21 (DE3) bearing the plasmids to be expressed at 37 °C. For expression of Tau protein, the required volume of overnight culture to obtain 1:500 dilution was added to fresh M9 minimal medium containing 0.5% of glucose, 50 μg·mL^–1 ampicillin, 12.5 μg·mL^–1 chloramphenicol, and 25 μM ThS. The bacterial culture was grown at 37 °C and 250 rpm. When the cell density reached ABS600 nm= 0.6, an amount of 980 μL of culture was transferred into Eppendorf tubes of 1.5 mL with 10 μL of each compound to be tested in DMSO and 10 μL of arabinose at 25%. The final concentration of the drug was fixed at 10 μM. The samples were grown overnight at 37 °C and 1400 rpm using a thermomixer (Eppendorf, Hamburg, Germany). As the control of maximal amyloid presence, the same amount of DMSO without the drug was added to the sample. In parallel, noninduced samples (in the absence of arabinose) were also prepared and used as controls for the amyloid absence. In addition, the absorbance at 600 nm of the samples was checked to assess the potential intrinsic toxicity of the compounds and to confirm the correct bacterial growth.
(§2) ThS (T1892) and other chemical reagents were purchased from Sigma (St. Louis, MO). ThS stock solution (25 mM) was prepared in double-distilled water purified through a Milli-Q system (Millipore). For the fluorescence assay, the ThS spectra were measured on an AMINCO-Bowman series 2 luminescence spectrophotometer (Aminco-Bowman AB2, SLM Aminco, Rochester, NY) from 460 to 600 nm at 25 °C using an excitation wavelength of 440 nm and slit widths of 4 nm. The emission at 485 nm (fluorescence peak of ThS in the presence of amyloids) was recorded. To normalize the ThS fluorescence as a function of the bacterial concentration, ABS600nm was obtained using a Shimadzu UV-2401 PC UV–Vis spectrophotometer (Shimadzu, Japan). Note that the fluorescence normalization was carried out considering as 100% the ThS fluorescence of the bacterial cells expressing the peptide or protein in the absence of the drug and 0% the ThS fluorescence of the bacterial cells nonexpressing the peptide or protein.

[3] = tested on: Arctic Aβ42 Drosophila flies; assay: Lifespan analysis in Arctic Aβ42 Drosophila flies; conditions: 20 μM in fly food; days 5, 10, 20 post-eclosion
Description: As longevity is a phenotype that can be rapidly measured in this in vivo AD model, we first assessed changes in Drosophila’s lifespan with and without treatment with 22 and 23 (20 μM). […] Doxycycline was tested at 50 μM, a concentration used in similar previous experiments.[59]
as §4
Briefly, males and females 25 per vial were kept at 25 °C.

Aβ42 = target: T2, Aβ42 (Homo sapiens, UniProt P05067); assay: Inhibition of Aβ42 aggregation in intact E. coli cells overexpressing Aβ42 (ThS fluorescence); assay type: cell-based, Escherichia coli; conditions: read-out: % inhibition Aβ42 aggregation @ 10 μM, intact E. coli cells, compound 10 μM, mean ± SEM of four independent experiments
T2 construct: expressed in transfected cells; host or cells: Escherichia coli BL21 (DE3), pET28a
T2 sequence (P05067 672-713 limits assumed): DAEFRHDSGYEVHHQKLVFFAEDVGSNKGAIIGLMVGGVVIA
Text: as §1
Escherichia coli competent cells BL21 (DE3) were transformed with the pET28a vector (Novagen, Inc., Madison, WI) carrying the DNA sequence of Aβ42. Because of the addition of the initiation codon ATG in front of both genes, the overexpressed peptide contains an additional methionine residue at its N terminus. For overnight culture preparation, an amount of 10 mL of M9 minimal medium containing 50 μg·mL^–1 kanamycin was inoculated with a colony of BL21 (DE3) bearing the plasmid to be expressed at 37 °C. For expression of the Aβ42 peptide, the required volume of overnight culture to obtain 1:500 dilution was added into fresh M9 minimal medium containing 50 μg·mL^–1 kanamycin and 250 μM ThS. The bacterial culture was grown at 37 °C and 250 rpm. When the cell density reached ABS600 nm = 0.6, an amount of 980 μL of culture was transferred into Eppendorf tubes of 1.5 mL with 10 μL of each compound to be tested in DMSO and 10 μL of isopropyl 1-thio-β-D-galactopyranoside (IPTG) at 100 mM. The final concentration of the drug was fixed at 10 μM. The samples were grown overnight at 37 °C and 1400 rpm using a thermomixer (Eppendorf, Hamburg, Germany). As the control of the amyloid presence (maximal amyloid presence), the same amount of DMSO without the drug was added to the sample. In parallel, noninduced samples (in the absence of IPTG) were also prepared and used as controls of the non-amyloid presence. In addition, the absorbance at 600 nm of the samples was checked to assess the potential intrinsic toxicity of the compounds and to confirm the correct bacterial growth.
as §2

[4] = tested on: cerebellar granule neurons (CGNs); assay: Neurotoxicity on primary cultures of cerebellar granule neurons (nuclei counting after Hoechst staining); conditions: differentiated CGNs, 24 h, percentage of healthy nuclei on total nuclei, mean ± SEM of three experiments
Tau(306-336) peptide = target: T3, Tau(306-336) peptide (Homo sapiens, UniProt P10636); assay: Inhibition of Tau(306-336) peptide aggregation (ThT fluorimetric assay); assay type: biochemical; conditions: Tau(306-336) 50 μM, compound 50 μM, phosphate buffer pH 7.4, read-out: Inhibition of Tau(306-336) peptide self-aggregation (%) ± SEM
T3 construct: 1 mg of Tau(306-336) (Bachem AG, Germany) was dissolved; purchased Bachem AG, Germany
T3 sequence (P10636 623-653 limits assumed): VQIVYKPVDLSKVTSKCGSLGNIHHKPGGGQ
Description: Secondly, we investigated the ability of the compounds to interfere with Tau aggregation, using the third repeat domain Tau fragment (Tau(306-336) peptide).[44] The aggregation profiles of the Tau(306–336) peptide (50 μM) in the absence and presence of equimolar concentrations of either 22 or 23 were monitored in phosphate buffer 50 mM, pH 7.4, using Thioflavin T (ThT) as the detection dye.
Briefly, 1 mg of Tau(306-336) (Bachem AG, Germany) was dissolved in 1,1,1,3,3,3,-hexafluoro-2-propanol (HFIP), gently vortexed, sonicated, and kept overnight at room temperature. Subsequently, the sample was aliquoted, dried, and stored at −20 °C. Stock solutions of Tau(306-336) peptide (500 μM) were prepared in ultrapure water and immediately used. […] Tau(306-336) aggregation was monitored at 30 °C in a black, clear bottom 96-well plate (Greiner) by the EnSpire multiplate reader (Perkin Elmer) using the ThT fluorimetric assay[14] with some variations. […] Fluorescence data were recorded every 10 min overnight with 1 min shaking at 800 rpm prior to each reading. […] Inhibition % is expressed as the mean ± SEM. Quenching of ThT fluorescence was evaluated by preparing blank solutions containing the inhibitor/reference compound and preformed fibrils of Tau(306–336) peptide.

Row | Compound | solubility in Tau(306-336) aggregation assay conditions ([1]; 50 μM, phosphate buffer 50 mM pH 7.4, NS = not soluble in the assay conditions) | solubility in Aβ42 ThT-based assay condition ([1]; dedicated solubility assays) | solubility (physchem) | Papp (PAMPA-BBB assay; PAMPA, pH 7.4) | BBB permeability prediction (PAMPA-BBB assay; PAMPA-BBB) | CNS (+/-) (PAMPA-BBB assay; PAMPA-BBB penetration estimation) | climbing abilities of Aβ42 Drosophila flies on day 21 ([2]; 20 μM in fly food) | climbing abilities of Aβ42 Drosophila flies ([2]; 20 μM in fly food, days 7, 14, 21 post-eclosion) | inhibition at 10 µM (Tau protein) | lifespan of Aβ42 Drosophila flies [3] | inhibition at 10 µM (Aβ42) | % survival neurotoxicity @ 10 μM [4] | climbing abilities of Aβ42 Drosophila flies on day 21 ([2]; 50 μM in fly food) | inhibition at 50 µM (Tau(306-336) peptide)
1 | CN(C)CCN1C(=O)S/C(=C\c2ccc3[nH]c4ccc(/C=C5\SC(=O)N(CCN(C)C)C5=O)cc4c3c2)C1=O [Compound 22, (5Z,5′Z)-5,5′-((9H-Carbazole-3,6-diyl)bis(methanylylidene))bis(3-(2-(dimethylamino)ethyl)thiazolidine-2,4-dione)] | solubility issues | too limited to grant trustable results | < 50 µM | 5.3 ± 1.17 ×10⁻⁶ cm/s | predicted to passively diffuse across the BBB | CNS + (CNS + (high BBB permeation predicted): Pe (×10-6 cm s-1) > 4.0) | good climbing performances | greatly improving the climbing performances | 66.1 ± 3.9% | increase in longevity | 74 ± 4.3% | 94.3 ± 1.8% |  | 
2 | C[C@H]1c2cccc(O)c2C(=O)C2=C(O)[C@]3(O)C(=O)C(C(N)=O)=C(O)[C@@H](N(C)C)[C@@H]3[C@@H](O)[C@@H]21 [Doxycycline, doxycycline, reference compound] |  |  |  |  |  |  |  |  |  |  |  |  | strongly declined | 61.5 ± 0.8%
